Measurements taken from EP0374249A1, “METHOD OF STERILIZING PLANT POLLEN” (VSESOJUZNY NAUCHNO-ISSLEDOVATELSKY INST. SELSKOKHOZYAISTV. …, priority 1988, dated 1989).

Key:
[1] = test system: Winterweizens Sorte Mir.onovskaya 808; test: Field test of pollen sterilisation (gametocidal activity), winter wheat Mironovskaya 808; assay type: in vivo, Winterweizen; settings: 2% aqueous emulsion, 20 kg/ha; for Prozentsatz der Sterilität / Anzahl von Körnern der Ähre bei freier Bestäubung / Anzahl von Körnern der Ähre im Isolator: period V of organogenesis; for Anzahl von Körnern der Ähre bei freier Bestäubung: free pollination; for Anzahl von Körnern der Ähre im Isolator: isolated ears; for Prozentsatz des Ansetzens von Körnern bei freier Bestäubung: period V, non-isolated control ears = 100%
Description: Als Emulgierungsmittel wird 0,1 Masse% Kalziumalkylbenzolsulfonat mit 12 bis 14 Kohlenstoffatomen hinzugefügt. Als Adjuvans fährt man in die Emulsion 0,01 Masse% Dimethylsulfoxid ein. Der Verbrauch an Präparat beträgt 20 kg/ha. Als Kontrolle dienen Pflanzen, behandelt mit einem Verdünner ohne Sterilisationsmittel.

[2] = test system: Winterweizens Sorte Bezostaya 1; test: Field test of pollen sterilisation, winter wheat Bezostaya 1; assay type: in vivo, Winterweizen; settings: 2% aqueous emulsion, 16 kg/ha; for Prozentsatz der Sterilität / Anzahl von Körnern der Ähre bei freier Bestäubung / Anzahl von Körnern der Ähre im Isolator: period V of organogenesis; for Anzahl von Körnern der Ähre bei freier Bestäubung: free pollination; for Anzahl von Körnern der Ähre im Isolator: isolated ears; for Prozentsatz des Ansetzens von Körnern bei breier Bestäubung: period V, non-isolated control ears = 100%
Description: Pflanzen des Winterweizens Sorte Bezostaya 1 werden in der V. Periode der Organogenese durch Zerstäubung einer 2%igen wässrigen Emulsion von N-(2-Dimethylaminoäthyl)-maleaminsäure, N-(3-Dimethylaminopropyl)-maleaminsäure, N-Äthylmaleaminsäure, N-(2-Hydroxyäthyl)-maleaminsäure, N-Karbamoylmaleaminsäure mit Hilfe deiner Rückspritze behandelt. Die Emulsion enthält 0,1 Masse% Kalziumalkylbenzolsulfonat mit 12 bis 14 Kohlenstoffatomen. Als Adjuvans führt man in die Emulsion 0,01 Masse% Tetrahydrofuran ein.
Der Verbrauch an Präparat beträgt 16 kg/ha. Als Kontrolle dienen Pflanzen, behandelt mit einem Verdünner ohne Sterilisationsmitteln.

[3] = test system: Sommerweizens Sorte Moskovskaya 35; test: Field test of pollen sterilisation, spring wheat Moskovskaya 35; assay type: in vivo, Sommerweizen; settings: 1% aqueous emulsion, 10 kg/ha; for Prozentsatz der Sterilität / Anzahl von Körnern der Ähre bei freier Bestäubung / Anzahl von Körnern der Ähre im Isolator: period V of organogenesis; for Anzahl von Körnern der Ähre bei freier Bestäubung: free pollination; for Anzahl von Körnern der Ähre im Isolator: isolated ears; for Prozentsatz des Ansetzens von Körnern bei freier Bestäubung: period V, non-isolated control ears = 100%
Description: Pflanzen des Sommerweizens Sorte Moskovskaya 35 werden in V. Periode der Organogenese (nach Kupermann) mit einer 1%igen wässrigen Emulsion von N-(2-Dimethyl-aminoäthyl)-maleaminsäure, N-(3-Dimethylaminopropyl)-maleaminsäure, N-Äthylmaleaminsäure, N-(2-Hydroxyäthyl) maleaminsäure bzw. N-Karbamoylmaleaminsäure behandelt. Die Emulsion enthält 0,5 Masse% Kalziumalkylbenzolsulfonat mit 12 bis 14 Kohlenstoffatomen als Emulgierungsmittel und 0,01 Masse% Dimethylformamid als Adjuvans. Der Verbrauch an Präparat beträgt 10 kg/ha. Als Kontrolle dienen Pflanzen, behandelt mit einem Verdünner ohne Sterilisationsmittel.

[4] = test system: Sommerweizens Sorte Botanicheskaya 4; test: Field test of pollen sterilisation, spring wheat Botanicheskaya 4; assay type: in vivo, Sommerweizen; settings: 1% aqueous emulsion, 6 kg/ha; for Prozentsatz der Sterilität / Anzahl von Körnern der Ähre bei freier Bestäubung / Anzahl von Körnern der Ähre im Isolator: period V of organogenesis; for Anzahl von Körnern der Ähre bei freier Bestäubung: free pollination; for Anzahl von Körnern der Ähre im Isolator: isolated ears; for Prozentsatz des Ansetzens von Körnern bei freier Bestäubung: period V, non-isolated control ears = 100%
Description: Pflanzen des Sommerweizens Sorte Botanicheskaya 4 werden in der V. Periode der Organogenese (nach Kupermann) mit einer 1%igen Wässrigen Emulsion von N-(2-Dimethyl-aminoäthyl)-maleaminsäure, N-(3-Dimethylaminopropyl)-maleaminsäure, N-Äthylmaleaminsäure, N-(2-Hydroxyäthyl)-maleaminsäure bzw. N-Karbamoylmaleaminsäure behandelt. Die Emulsion enthält 0,5 Masse% Kalziumalkylbenzolsulfonat mit 12 bis 14 Kohlenstoffatomen und 0,01 Masse% Dimethylsulfoxid als Adjuvans. Der Verbrauch an Präparat beträgt 6 kg/ha. Als Kontrolle dienen Pflanzen, behandelt mit einem Verdünner ohne Sterilisationsmittel.

[5] = test system: tetraploidem Roggen Sorte Belta; test: Field test of pollen sterilisation, tetraploid rye Belta; assay type: in vivo; settings: 1% aqueous emulsion, 10 kg/ha; for Prozentsatz der Sterilität / Anzahl von Körnern der Ähre bei freier Bestäubung / Anzahl von Körnern der Ähre im Isolator: period V of organogenesis; for Anzahl von Körnern der Ähre bei freier Bestäubung: free pollination; for Anzahl von Körnern der Ähre im Isolator: isolated ears; for Prozentsatz des Ansetzens von Körnern bei freier Bestäubung: period V, non-isolated control ears = 100%
Description: (§1) Die gametozide Aktivität der erfindungsgemässen Sterilisationsmittel war im Feldversuch in verschiedenen Bodenklimatischen Zonen mit Teilstücken von 10 m^2 Grösse in drei- bis viermaliger Wiederholung nachgewiesen. Jedes Sterilisationsmittel wurde mindestens 5 Jahre lang geprüft.
(§2) Die Entwicklung der Perioden der Organogenese wird zytologischüberwacht. Die Behandlung von Pflanzen mit dem Sterilisationsmittel erfolgt am Anfang der fünften Periode der Organogenese nach Kupermann.
(§3) Mit dem Ahrenschiebe verwirklicht man die Isolierung von Hauptähren und anderen Stockwerken in Pergamentbeuteln. Bei Weizen und Tritikale werden Einzelisolatoren verwendet. Bei Roggen schliesst man je Ähre 5 bis 7 verschiedene nebeneinander befindliche Pflanzen unter einen gemeinsamen Isolator ein. Bei Hirse wird jede Rispe getrennt isoliert. Der Sterilitätsprozentsatz (X) für Weizen, Roggen, Tritikale und Hirse wird nach folgender Formel [formula] ermittelt.
(§4) Die Kornzahl in nicht isolierten ähren von Kontrollpflanzen wird bedingt für 100% Ansetzen bei freier Bestäubung angenommen.
(§5) Um zuverlässige Angaben zu erhalten, verwendet man 20 bis 25 Isolatoren jeder Wiederholung für Weisen und Tritikale, 10 bis 15 Gruppenisolatoren jeder Wiederholung für Roggen und Hirse.
Pflanzen von tetraploidem Roggen Sorte Belta werden in der V. Periode der Organogenese (nach Kupermann) mit einer 1%igen wässrigen Emulsion von N-(2-Dimethylamino- .äthyl)maleaminsäure, N-(3-Dimethylaminopropyl)maleaminsäure, N-Äthylmaleaminsäure, N-(2-Hydroxyäthyl)maleaminsäure bzw. Karbamoylmaleaminsäure behandelt. Die Emulsion enthält 0,5 Masse% Kalziumalkylbenzolsulfonat mit 12 bis 14 Kohlenstoffatomen und 0,01 Masso% Tetrahydrofuran. Der Verbrauch an Präparat beträgt 10 kg/ha. Die Prüfergebnisse sind in der Tabelle 5 dargestellt. […] Periode der Organogenese erhalten.

[6] = test system: diploidem Roggen Sorte Voskhod 2; test: Field test of pollen sterilisation, diploid rye Voskhod 2; assay type: in vivo; settings: 1% aqueous emulsion, 10 kg/ha; for Prozentsatz der Sterilität / Anzahl von Körnern der Ähre bei freier Bestäubung / Anzahl von Körnern der Ähre im Isolator: period V of organogenesis; for Anzahl von Körnern der Ähre bei freier Bestäubung: free pollination; for Anzahl von Körnern der Ähre im Isolator: isolated ears; for Prozentsatz des Ansetzens von Körnern bei freier Bestäubung: period V, non-isolated control ears = 100%
Description: Die Emulsion enthält 0,1 Masse% Kalziumalkylbenzolsulfonat und 0,01 Masse% Dimethylformamid. Der Verbrauch an Präparat beträgt 10 kg/ha. Als Kontrolle dienen Pflanzen, behandelt mit einem Lösungsmittel ohne Sterilisationsmittel.

[7] = test system: diploidem Roggen Sorte Chulpan; test: Field test of pollen sterilisation, diploid rye Chulpan; assay type: in vivo; settings: 1% aqueous emulsion, 8 kg/ha; for Prozentsatz der Sterilität / Anzahl von Körnern der Ähre bei freier Bestäubung / Anzahl von Körnern der Ähre im Isolator: period V of organogenesis; for Anzahl von Körnern der Ähre bei freier Bestäubung: free pollination; for Anzahl von Körnern der Ähre im Isolator: isolated ears; for Prozentsatz des Ansetzens von Körnern bei freier Bestäubung: period V, non-isolated control ears = 100%
Description: (§6) Mit dem Ahrenschiebe verwirklicht man die Isolierung von Hauptähren und anderen Stockwerken in Pergamentbeuteln. […] Bei Roggen schliesst man je Ähre 5 bis 7 verschiedene nebeneinander befindliche Pflanzen unter einen gemeinsamen Isolator ein. […] Der Sterilitätsprozentsatz (X) für Weizen, Roggen, Tritikale und Hirse wird nach folgender Formel [formula] ermittelt.
Die Emulsion enthält 0,01 Masse% Tetranydrofuran und 0,1 Masse% Kalziumalkylbenzolsulfonat mit 12 bis 14 Kohlenstoffatomen. Der Verbrauch an Präparat beträgt 8 kg/ha. Als Kontrolle dienen Pflanzen, behandelt mit einem Verdünner ohne Sterilisationsmittel.

[8] = test system: diploidem Roggen Sorte Talovskaya 12; test: Field test of pollen sterilisation, diploid rye Talovskaya 12; assay type: in vivo; settings: 1% aqueous emulsion, 6 kg/ha; for Prozentsatz der Sterilität / Anzahl von Körnern der Ähre bei freier Bestäubung / Anzahl von Körnern der Ähre im Isolator: period V of organogenesis; for Anzahl von Körnern der Ähre bei freier Bestäubung: free pollination; for Anzahl von Körnern der Ähre im Isolator: isolated ears
Description: as §6
Pflanzen von diploidem Roggen Sorte Talovskaya 12 werden in der V. Periode der Organogenese (nach Kupermann) mit einer 1%igen wässrigen Emulsion von N-(2-Di- methylaminoäthyl)-maleaminsäure, N-(3-Dimethylaminopropyl)-maleaminsäure, N-Äthylmaleaminsäure, N-(2-Hydroxyäthyl)maleaminsäure, N-Karbamoylmaleaminsäure behandelt. Die Emulsion enthält 0,01 Masse% Dodezylsulfat und 0,1 Masse% Kalziumalkylbenzolsulfonat mit 12 bis _14 Kohlenstoffatomen. Der Verbrauch an Präparat beträgt 6 kg/ha. Als Kontrolle dienen Pflanzen, behandelt mit einem Verdünner ohne Sterilisationsmittel.

[9] = test system: Hirse Sorte Mironovskoe 94; test: Field test of pollen sterilisation, millet Mironovskoe 94; assay type: in vivo; settings: 1% aqueous emulsion, 8 kg/ha; for Prozentsatz der Sterilität / Anzahl von Körnern der Rispe bei freier Bestäubung / Anzahl von Körnern der Rispe im Isolator: period V of organogenesis; for Anzahl von Körnern der Rispe bei freier Bestäubung: free pollination; for Anzahl von Körnern der Rispe im Isolator: isolated panicles; for Prozentsatz des Ansetzens von Körnern bei freier Bestäubung: period V, non-isolated control = 100%
Description: as §1, §2, §3, §4, §5
Pflanzen der Hirse Sorte Mironovskoe 94 werden in der V. Periode der Organogenese (nach Kupermann) mit einer 1%igen wässrigen Emulsion von N-(2-Dimethylaminoäthyl)maleaminsäure, N-(3-Dimethylaminopropyl)maleaminsäure, N-Äthylmaleaminsäure, N-(2-Hydroxyäthyl)maleaminsäure, N-Karbamoylmaleaminsäure behandelt. Die Emulsion enthält 0,01 Masse% Dimethylaulfoxid und 0,1 Masse% Kalziumalkylbenzolsulfonat mit 12 bis 14 Kohlenstoffatomen. Der Verbrauch an Präparat beträgt 8 kg/ha. Als Kontrolle dienen Pflanzen, behandelt mit einem Verdünner ohne Sterilisationsmittel. Die Prüfergebnisse sind in der Tabelle 12 dargestellt. […] Periode der Organogenese erhalten.

[10] = Toxicity test in animals (LD50); settings: in vivo; animal test, per kg animal weight; species and route not given
Description: Alle erfindungsgemässen N-substituierten Maleaminsäuren, welche als Sterilisationsmittel zur Verwendung kommen, waren auf die Toxizität im Tierversuch geprüft. Die Prüfergebnisse haben ergeben, dass die angegebenen Verbindungen von schwacher oder mittlerer Toxizität sind.

[11] = test system: Hirse Sorte K-9693 Kormovoe 1; test: Field test of pollen sterilisation, millet K-9693 Kormovoe 1; assay type: in vivo; settings: 1% aqueous emulsion, 6 kg/ha; for Prozentsatz der Sterilität / Anzahl von Körnern der Rispe bei freier Bestäubung / Anzahl von Körnern der Rispe im Isolator: period V of organogenesis; for Anzahl von Körnern der Rispe bei freier Bestäubung: free pollination; for Anzahl von Körnern der Rispe im Isolator: isolated panicles; for Prozentsatz des Ansetzens von Körnern bei freier Bestäubung: period V, non-isolated control = 100%
Description: as §1, §2, §3, §4, §5
Pflanzen der Hirse Sorte K-9693 Kormovoe 1 werden in der V. Periode der Organogenese (nach Kupermann) mit einer 1%igen wässrigen Emulsion von N-(2-Dimethylaminoäthyl) maleaminsäure, N-(3-Dimethylaminopropyl)maleaminsäure, N-Äthylmaleaminsäure, N-Karbamoylmaleaminsäure behandelt. Die Emulsion enthält 0,01 Masse% Dimethylformamid und 0,1 Masse% Kalziumalkylbenzolsulfonat mit 12 bis 14 Kohlenstoffatomen.
Der Verbrauch an Präparat beträgt 6 kg/ha. Als Kontrolle dienen Pflanzen, behandelt mit einem Verdünner ohne Sterilisationsmittel. Die Prüfergebnisse sind in der Tabelle13 dargestellt. […] Periode der Organogenese erhalten.

CCNC(=O)/C=C\C(=O)O [Beispiel 3, N-Äthylmaleaminsäure]
Prozentsatz der Sterilität [1]: 99,5% | Anzahl von Körnern der Ähre bei freier Bestäubung [1]: 40,7 | Anzahl von Körnern der Ähre im Isolator [1]: 0,2 | Prozentsatz des Ansetzens von Körnern bei freier Bestäubung [1]: 95,5% | Prozentsatz der Sterilität [2]: 99,4% | Anzahl von Körnern der Ähre bei freier Bestäubung [2]: 42,1 | Anzahl von Körnern der Ähre im Isolator [2]: 0,2 | Prozentsatz des Ansetzens von Körnern bei breier Bestäubung [2]: 98,1% | Prozentsatz der Sterilität [3]: 98,5% | Anzahl von Körnern der Ähre bei freier Bestäubung [3]: 26,7 | Anzahl von Körnern der Ähre im Isolator [3]: 0,4 | Prozentsatz des Ansetzens von Körnern bei freier Bestäubung [3]: 97,1% | Prozentsatz der Sterilität [4]: 100,0% | Anzahl von Körnern der Ähre bei freier Bestäubung [4]: 28,2 | Anzahl von Körnern der Ähre im Isolator [4]: 0,0 | Prozentsatz des Ansetzens von Körnern bei freier Bestäubung [4]: 93,7% | Prozentsatz der Sterilität [5]: 99,4% | Anzahl von Körnern der Ähre bei freier Bestäubung [5]: 52,3 | Anzahl von Körnern der Ähre im Isolator [5]: 0,3 | Prozentsatz des Ansetzens von Körnern bei freier Bestäubung [5]: 95,4% | Prozentsatz der Sterilität [6]: 100,0% | Anzahl von Körnern der Ähre bei freier Bestäubung [6]: 53,0 | Anzahl von Körnern der Ähre im Isolator [6]: 0,0 | Prozentsatz des Ansetzens von Körnern bei freier Bestäubung [6]: 96,0% | Prozentsatz der Sterilität [7]: 99,4% | Anzahl von Körnern der Ähre bei freier Bestäubung [7]: 49,8 | Anzahl von Körnern der Ähre im Isolator [7]: 0,3 | Prozentsatz des Ansetzens von Körnern bei freier Bestäubung [7]: 87,7% | Prozentsatz der Sterilität [8]: 100,0% | Anzahl von Körnern der Ähre bei freier Bestäubung [8]: 50,1 | Anzahl von Körnern der Ähre im Isolator [8]: 0,0 | Prozentsatz der Sterilität [9]: 100,0% | Anzahl von Körnern der Rispe bei freier Bestäubung [9]: 200,8 | Anzahl von Körnern der Rispe im Isolator [9]: 0,0 | Prozentsatz des Ansetzens von Körnern bei freier Bestäubung [9]: 88,3% | LD50 [10]: 2000 mg/kg

O=C(O)/C=C\C(=O)NCCO [Beispiel 4, N-(2-Hydroxyäthyl)-maleaminsäure]
Prozentsatz der Sterilität [1]: 99,3% | Anzahl von Körnern der Ähre bei freier Bestäubung [1]: 39,8 | Anzahl von Körnern der Ähre im Isolator [1]: 0,3 | Prozentsatz des Ansetzens von Körnern bei freier Bestäubung [1]: 93,4% | Prozentsatz der Sterilität [2]: 100,0% | Anzahl von Körnern der Ähre bei freier Bestäubung [2]: 37,1 | Anzahl von Körnern der Ähre im Isolator [2]: 0,0 | Prozentsatz des Ansetzens von Körnern bei breier Bestäubung [2]: 86,5% | Prozentsatz der Sterilität [3]: 100,0% | Anzahl von Körnern der Ähre bei freier Bestäubung [3]: 27,0 | Anzahl von Körnern der Ähre im Isolator [3]: 0,0 | Prozentsatz des Ansetzens von Körnern bei freier Bestäubung [3]: 98,2% | Prozentsatz der Sterilität [4]: 100,0% | Anzahl von Körnern der Ähre bei freier Bestäubung [4]: 28,7 | Anzahl von Körnern der Ähre im Isolator [4]: 0,0 | Prozentsatz des Ansetzens von Körnern bei freier Bestäubung [4]: 95,3% | Prozentsatz der Sterilität [5]: 99,6% | Anzahl von Körnern der Ähre bei freier Bestäubung [5]: 51,6 | Anzahl von Körnern der Ähre im Isolator [5]: 0,2 | Prozentsatz des Ansetzens von Körnern bei freier Bestäubung [5]: 94,2% | Prozentsatz der Sterilität [6]: 98,4% | Anzahl von Körnern der Ähre bei freier Bestäubung [6]: 52,2 | Anzahl von Körnern der Ähre im Isolator [6]: 0,8 | Prozentsatz des Ansetzens von Körnern bei freier Bestäubung [6]: 94,6% | Prozentsatz der Sterilität [7]: 99,8% | Anzahl von Körnern der Ähre bei freier Bestäubung [7]: 50,1 | Anzahl von Körnern der Ähre im Isolator [7]: 0,1 | Prozentsatz des Ansetzens von Körnern bei freier Bestäubung [7]: 88,2% | Prozentsatz der Sterilität [8]: 99,3% | Anzahl von Körnern der Ähre bei freier Bestäubung [8]: 53,2 | Anzahl von Körnern der Ähre im Isolator [8]: 0,3 | Prozentsatz des Ansetzens von Körnern bei freier Bestäubung ([8]; period V, non-isolated control ears = 100%): 94,7% | Prozentsatz der Sterilität [9]: 100,0% | Anzahl von Körnern der Rispe bei freier Bestäubung [9]: 215,0 | Anzahl von Körnern der Rispe im Isolator [9]: 0,0 | Prozentsatz des Ansetzens von Körnern bei freier Bestäubung [9]: 94,6% | LD50 [10]: 1500 mg/kg

CN(C)CCNC(=O)/C=C\C(=O)O [Beispiel 54, N-(2-Dimethylaminoäthyl) maleaminsäure]
Prozentsatz der Sterilität [11]: 100,0% | Anzahl von Körnern der Rispe bei freier Bestäubung [11]: 124,2 | Anzahl von Körnern der Rispe im Isolator [11]: 0,0 | Prozentsatz des Ansetzens von Körnern bei freier Bestäubung [11]: 84,7%

CN(C)CCCNC(=O)/C=C\C(=O)O [Beispiel 55, N-(3-Dimethylaminopropyl)maleaminsäure]
Prozentsatz der Sterilität [11]: 100,0% | Anzahl von Körnern der Rispe bei freier Bestäubung [11]: 100,8 | Anzahl von Körnern der Rispe im Isolator [11]: 0,0 | Prozentsatz des Ansetzens von Körnern bei freier Bestäubung [11]: 68,7%

CCNC(=O)/C=C\C(=O)O [Beispiel 56, N-Äthylmaleaminsäure]
Prozentsatz der Sterilität [11]: 100,0% | Anzahl von Körnern der Rispe bei freier Bestäubung [11]: 114,7 | Anzahl von Körnern der Rispe im Isolator [11]: 0,0 | Prozentsatz des Ansetzens von Körnern bei freier Bestäubung [11]: 78,2%

O=C(O)/C=C\C(=O)NCCO [Beispiel 57, N-(2-Hydroxyäthyl)maleaminsäure]
Prozentsatz der Sterilität [11]: 100,0% | Anzahl von Körnern der Rispe bei freier Bestäubung [11]: 127,2 | Anzahl von Körnern der Rispe im Isolator [11]: 0,0 | Prozentsatz des Ansetzens von Körnern bei freier Bestäubung [11]: 86,7%

NC(=O)NC(=O)/C=C\C(=O)O [Beispiel 58, N-Karbamoylmaleaminsäure]
Prozentsatz der Sterilität [11]: 100,0% | Anzahl von Körnern der Rispe bei freier Bestäubung [11]: 133,6 | Anzahl von Körnern der Rispe im Isolator [11]: 0,0 | Prozentsatz des Ansetzens von Körnern bei freier Bestäubung [11]: 91,1%
